Assay results from ChEMBL document CHEMBL1201862, “PubChem BioAssay data set” (2004).
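Cultured in 96-well plates, cells were exposed to test compound for 48 hours across five concentrations. At the GI50, growth is halved.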 The source made the active and inactive calls. Cut-off read from the data, not from the text of the source: active = GI50 up to about 1.1 µM and inactive = higher.

Legend:
Assay in all cases: NCI-60 cell line screen, 48 h
Malme-3M = tested on: Malme-3M
MDA-MB-231 = tested on: MDA-MB-231
SK-MEL-5 = tested on: SK-MEL-5
A549 = tested on: A549
NCI-H226 = tested on: NCI-H226
MDA-MB-435 = tested on: MDA-MB-435
HCT-116 = tested on: HCT-116
RXF 393 = tested on: RXF 393
A498 = tested on: A498
SF-295 = tested on: SF-295
KM12 = tested on: KM12
SNB-75 = tested on: SNB-75
CCRF-CEM = tested on: CCRF-CEM
HOP-62 = tested on: HOP-62
DU-145 = tested on: DU-145
U-251 = tested on: U-251
ACHN = tested on: ACHN
NCI-H522 = tested on: NCI-H522
MOLT-4 = tested on: MOLT-4
OVCAR-8 = tested on: OVCAR-8

Compound	GI50 (Malme-3M)	GI50 (MDA-MB-231)	GI50 (SK-MEL-5)	GI50 (A549)	GI50 (NCI-H226)	GI50 (MDA-MB-435)	GI50 (HCT-116)	GI50 (RXF 393)	GI50 (A498)	GI50 (SF-295)	GI50 (KM12)	GI50 (SNB-75)	GI50 (CCRF-CEM)	GI50 (HOP-62)	GI50 (DU-145)	GI50 (U-251)	GI50 (ACHN)	GI50 (NCI-H522)	GI50 (MOLT-4)	GI50 (OVCAR-8)
Cn1c(=O)c2nc(CCNC(=O)c3ccccc3)[nH]c2n(C)c1=O	> 100 µM (inactive)	> 100 µM (inactive)	> 100 µM (inactive)	> 100 µM (inactive)	> 100 µM (inactive)	> 100 µM (inactive)	> 100 µM (inactive)	> 100 µM (inactive)	> 100 µM (inactive)	> 100 µM (inactive)	> 100 µM (inactive)	> 100 µM (inactive)	> 100 µM (inactive)	> 100 µM (inactive)	> 100 µM (inactive)	> 100 µM (inactive)	> 100 µM (inactive)	> 100 µM (inactive)	> 100 µM (inactive)	> 100 µM (inactive)
COc1cc2c(c(OC)c1OC)-c1ccc(SC)c(=O)cc1C(NC=O)CC2 (stereo not given)	< 0.01 µM (active)	< 0.01 µM (active)	< 0.01 µM (active)	< 0.01 µM (active)	0.0465 µM (active)	< 0.01 µM (active)	< 0.01 µM (active)	0.0463 µM (active)	< 0.01 µM (active)	< 0.01 µM (active)	< 0.01 µM (active)	< 0.0442 µM (active)	0.015 µM (active)	< 0.01 µM (active)	< 0.01 µM (active)	< 0.01 µM (active)	< 0.01 µM (active)	< 0.01 µM (active)	< 0.01 µM (active)	< 0.01 µM (active)
CC(C)(CO)CNc1nc(N)nc(Cl)c1/C=N/O	57.4 µM (inactive)	25.8 µM (inactive)	5.78 µM (inactive)	16.9 µM (inactive)	22.6 µM (inactive)	43.9 µM (inactive)	10.2 µM (inactive)	22.2 µM (inactive)	23.9 µM (inactive)	14.1 µM (inactive)	84.5 µM (inactive)	50.9 µM (inactive)	23 µM (inactive)	30.9 µM (inactive)	31.4 µM (inactive)	48.6 µM (inactive)	28.6 µM (inactive)	25.8 µM (inactive)	17 µM (inactive)	31.6 µM (inactive)
O=C1SC(c2ccc(Cl)cc2)(c2ccc(Cl)cc2)c2ccccc21	> 100 µM (inactive)	> 100 µM (inactive)	52.8 µM (inactive)	> 100 µM (inactive)	39.5 µM (inactive)	61.5 µM (inactive)	13.3 µM (inactive)	39.4 µM (inactive)	> 100 µM (inactive)	97.5 µM (inactive)	66.7 µM (inactive)	> 100 µM (inactive)	36.2 µM (inactive)	> 100 µM (inactive)	89.1 µM (inactive)	> 100 µM (inactive)	91 µM (inactive)	70 µM (inactive)	32.7 µM (inactive)	> 100 µM (inactive)
Cc1ccc2c(c1)C(=O)c1nc(C)ccc1C2=O	4.95 µM (inactive)	13.9 µM (inactive)	6.9 µM (inactive)	31 µM (inactive)	43.5 µM (inactive)	21.6 µM (inactive)	23.9 µM (inactive)	66.7 µM (inactive)	59.3 µM (inactive)	38.1 µM (inactive)	23.3 µM (inactive)	29.8 µM (inactive)	27.9 µM (inactive)	69 µM (inactive)	32.3 µM (inactive)	35.5 µM (inactive)	33.3 µM (inactive)	28.7 µM (inactive)	69.3 µM (inactive)	27 µM (inactive)
c1ccc2sc(C3(N4CCCCC4)CCCCCC3)cc2c1	24 µM (inactive)	23 µM (inactive)	16.6 µM (inactive)	30 µM (inactive)	17.3 µM (inactive)	22.3 µM (inactive)	15.5 µM (inactive)	14.5 µM (inactive)	15.2 µM (inactive)	22.4 µM (inactive)	17.1 µM (inactive)	15.2 µM (inactive)	13.2 µM (inactive)	28.8 µM (inactive)	31.1 µM (inactive)	17.3 µM (inactive)	17.6 µM (inactive)	17.5 µM (inactive)	15.2 µM (inactive)	26.1 µM (inactive)
CCN1CCC(CNC(=O)c2ccc(N)cc2)N1CC (stereo not given)	> 100 µM (inactive)	> 100 µM (inactive)	> 100 µM (inactive)	> 100 µM (inactive)	> 100 µM (inactive)	> 100 µM (inactive)	> 100 µM (inactive)	> 100 µM (inactive)	> 100 µM (inactive)	> 100 µM (inactive)	> 100 µM (inactive)	> 100 µM (inactive)	> 100 µM (inactive)	> 100 µM (inactive)	> 100 µM (inactive)	> 100 µM (inactive)	> 100 µM (inactive)	> 100 µM (inactive)	> 100 µM (inactive)	> 100 µM (inactive)
CC(=O)O[C@H]1C(=O)[C@@]2(C)[C@H]([C@H](OC(=O)c3ccco3)[C@]3(O)C[C@H](OC(=O)[C@H](O)[C@@H](NC(=O)c4ccccc4)c4ccccc4)C(C)=C1C3(C)C)[C@]1(OC(C)=O)CO[C@@H]1C[C@@H]2O	0.119 µM (active)	4.58 µM (inactive)	0.116 µM (active)	0.518 µM (active)	0.429 µM (active)	0.0165 µM (active)	0.059 µM (active)	0.681 µM (active)	3.81 µM (inactive)	1.45 µM (inactive)	0.0834 µM (active)	0.134 µM (active)	0.05 µM (active)	0.676 µM (active)	0.676 µM (active)	0.125 µM (active)	7.98 µM (inactive)	0.309 µM (active)	0.114 µM (active)	0.273 µM (active)
O=c1[nH]nc(Cc2ccccc2)n1C1CCCC1	> 100 µM (inactive)	> 100 µM (inactive)	> 100 µM (inactive)	> 100 µM (inactive)	> 100 µM (inactive)	> 100 µM (inactive)	> 100 µM (inactive)	> 100 µM (inactive)	> 100 µM (inactive)	> 100 µM (inactive)	> 100 µM (inactive)	> 100 µM (inactive)	> 100 µM (inactive)	> 100 µM (inactive)	> 100 µM (inactive)	> 100 µM (inactive)	> 100 µM (inactive)	> 100 µM (inactive)	> 100 µM (inactive)	> 100 µM (inactive)
Cc1cc(SCC(=O)c2ccc(Br)cc2)cc(C)[o+]1	30.9 µM (inactive)	36.6 µM (inactive)	18 µM (inactive)	31.7 µM (inactive)	31.3 µM (inactive)	21.3 µM (inactive)	23.8 µM (inactive)	28.6 µM (inactive)	27.3 µM (inactive)	26.6 µM (inactive)	24.4 µM (inactive)	20.3 µM (inactive)	16 µM (inactive)	36.8 µM (inactive)	29.5 µM (inactive)	30.1 µM (inactive)	31.2 µM (inactive)	21.6 µM (inactive)	17.4 µM (inactive)	32.4 µM (inactive)
COCOC1/C=C/CCCC#C[C@H](C)C(=O)CC1 (stereo not given in full)	6.68 µM (inactive)	4.25 µM (inactive)	8.77 µM (inactive)	8.07 µM (inactive)	19.6 µM (inactive)	7 µM (inactive)	2.33 µM (inactive)	8.41 µM (inactive)	12.1 µM (inactive)	16.3 µM (inactive)	4.85 µM (inactive)	11.1 µM (inactive)	3.13 µM (inactive)	19.5 µM (inactive)	14.6 µM (inactive)	12.2 µM (inactive)	14.2 µM (inactive)	5.7 µM (inactive)	2.96 µM (inactive)	14.5 µM (inactive)
C=CC1(O)CCCC=C1COCc1ccccc1 (stereo not given)	> 100 µM (inactive)	> 100 µM (inactive)	52.6 µM (inactive)	> 100 µM (inactive)	> 100 µM (inactive)	47.5 µM (inactive)	51.3 µM (inactive)	> 100 µM (inactive)	> 100 µM (inactive)	> 100 µM (inactive)	50.2 µM (inactive)	61.4 µM (inactive)	43.6 µM (inactive)	> 100 µM (inactive)	> 100 µM (inactive)	> 100 µM (inactive)	56 µM (inactive)	16 µM (inactive)	23.4 µM (inactive)	53 µM (inactive)
CN(C)c1n/c(=N/Cc2cccs2)ss1	> 10 µM (inactive)	> 10 µM (inactive)	> 10 µM (inactive)	> 10 µM (inactive)	> 10 µM (inactive)	> 10 µM (inactive)	> 10 µM (inactive)	> 10 µM (inactive)	> 10 µM (inactive)	> 10 µM (inactive)	> 10 µM (inactive)	> 10 µM (inactive)	0.173 µM (active)	> 10 µM (inactive)	> 10 µM (inactive)	> 10 µM (inactive)	> 10 µM (inactive)	2.11 µM (inactive)	1.72 µM (inactive)	> 10 µM (inactive)
CCCCc1ccc(Nc2nc(Cl)c3ccn(C4CC(Oc5ccc(C)cc5)C(COc5ccc(C)cc5)O4)c3n2)cc1 (stereo not given)	26.7 µM (inactive)	> 46.5 µM (inactive)	> 46.5 µM (inactive)	> 46.5 µM (inactive)	> 46.5 µM (inactive)	> 46.5 µM (inactive)	> 46.5 µM (inactive)	> 46.5 µM (inactive)	> 46.5 µM (inactive)	> 46.5 µM (inactive)	> 46.5 µM (inactive)	> 83.2 µM (inactive)	> 46.5 µM (inactive)	> 100 µM (inactive)	> 46.5 µM (inactive)	> 46.5 µM (inactive)	25.2 µM (inactive)	22.4 µM (inactive)	> 46.5 µM (inactive)	> 46.5 µM (inactive)
